In ChEMBL document CHEMBL2413072, “Synthesis and in vitro anticancer studies of novel C-2 arylidene congeners of lantadenes” (2013):
Activity calls are given as the source filed them. The calls are words filed in the database; no cut-off is given here.

How the values were obtained:
Format in all cases: functional
HL-60(TB) [1] = test: Growth inhibition of human HL-60(TB) cells assessed as growth inhibition at 10 uM by sulforhodamine B assay
COLO 205 = test: Growth inhibition of human COLO205 cells assessed as growth inhibition at 10 uM by sulforhodamine B assay; details: read-out: GI
MDA-MB-468 = test: Growth inhibition of human MDA-MB-468 cells assessed as cell growth at 10 uM by sulforhodamine B assay; details: read-out: Activity
IGROV-1 [2] = test: Growth inhibition of human IGROV1 cells assessed as growth inhibition at 10 uM by sulforhodamine B assay; details: read-out: GI
A549 = test: Growth inhibition of human A549/ATCC cells assessed as growth inhibition at 10 uM by sulforhodamine B assay; details: read-out: GI
M14 = test: Growth inhibition of human M14 cells assessed as cell growth at 10 uM by sulforhodamine B assay; details: read-out: Activity
HCT-116 = test: Growth inhibition of human HCT116 cells assessed as cell growth at 10 uM by sulforhodamine B assay; details: read-out: Activity
UACC-62 = test: Growth inhibition of human UACC62 cells assessed as growth inhibition at 10 uM by sulforhodamine B assay
NCI-H322M = test: Growth inhibition of human NCI-H322M cells assessed as cell growth at 10 uM by sulforhodamine B assay; details: read-out: Activity
DU-145 = test: Growth inhibition of human DU145 cells assessed as growth inhibition at 10 uM by sulforhodamine B assay; details: read-out: GI
MOLT-4 = test: Growth inhibition of human MOLT4 cells assessed as cell growth at 10 uM by sulforhodamine B assay; details: read-out: Activity
KM12 = test: Growth inhibition of human KM12 cells assessed as cell growth at 10 uM by sulforhodamine B assay; details: read-out: Activity
Malme-3M [3] = test: Growth inhibition of human MALME-3M cells assessed as growth inhibition at 10 uM by sulforhodamine B assay; details: read-out: GI
Malme-3M [4] = test: Growth inhibition of human MALME-3M cells assessed as cell growth at 10 uM by sulforhodamine B assay; details: read-out: Activity
CCRF-CEM = test: Growth inhibition of human CCRF-CEM cells assessed as growth inhibition at 10 uM by sulforhodamine B assay; details: read-out: GI
UO-31 = test: Growth inhibition of human UO31 cells assessed as growth inhibition at 10 uM by sulforhodamine B assay
BT-549 [5] = test: Growth inhibition of human BT549 cells assessed as growth inhibition at 10 uM by sulforhodamine B assay; details: read-out: GI
SF-268 = test: Growth inhibition of human SF268 cells assessed as cell growth at 10 uM by sulforhodamine B assay; details: read-out: Activity
RXF 393 [6] = test: Growth inhibition of human RXF393 cells assessed as growth inhibition at 10 uM by sulforhodamine B assay; details: read-out: GI
HL-60(TB) [7] = test: Growth inhibition of human HL-60(TB) cells assessed as cell growth at 10 uM by sulforhodamine B assay; details: read-out: Activity
BT-549 [8] = test: Growth inhibition of human BT549 cells assessed as cell growth at 10 uM by sulforhodamine B assay; details: read-out: Activity
T47D = test: Growth inhibition of human T47D cells assessed as cell growth at 10 uM by sulforhodamine B assay; details: read-out: Activity
SNB-75 [9] = test: Growth inhibition of human SNB75 cells assessed as growth inhibition at 10 uM by sulforhodamine B assay; details: read-out: GI
RXF 393 [10] = test: Growth inhibition of human RXF393 cells assessed as cell growth at 10 uM by sulforhodamine B assay; details: read-out: Activity
[11] = Growth inhibition of human EKVX cells assessed as growth inhibition at 10 uM by sulforhodamine B assay; details: read-out: GI
NCI-H460 = test: Growth inhibition of human NCI-H460 cells assessed as cell growth at 10 uM by sulforhodamine B assay; details: read-out: Activity
NCI-H23 = test: Growth inhibition of human NCI-H23 cells assessed as cell growth at 10 uM by sulforhodamine B assay; details: read-out: Activity
ACHN = test: Growth inhibition of human ACHN cells assessed as cell growth at 10 uM by sulforhodamine B assay; details: read-out: Activity
HOP-92 [12] = test: Growth inhibition of human HOP92 cells assessed as growth inhibition at 10 uM by sulforhodamine B assay
HOP-92 [13] = test: Growth inhibition of human HOP92 cells assessed as cell growth at 10 uM by sulforhodamine B assay; details: read-out: Activity
UACC-257 [14] = test: Growth inhibition of human UACC257 cells assessed as cell growth at 10 uM by sulforhodamine B assay; details: read-out: Activity
UACC-257 [15] = test: Growth inhibition of human UACC257 cells assessed as growth inhibition at 10 uM by sulforhodamine B assay; details: read-out: GI
SR [16] = test: Growth inhibition of human SR cells assessed as growth inhibition at 10 uM by sulforhodamine B assay; details: read-out: GI
K562 = test: Growth inhibition of human K562 cells assessed as growth inhibition at 10 uM by sulforhodamine B assay; details: read-out: GI
MCF7 = test: Growth inhibition of human MCF7 cells assessed as growth inhibition at 10 uM by sulforhodamine B assay; details: read-out: GI
SR [17] = test: Growth inhibition of human SR cells assessed as cell growth at 10 uM by sulforhodamine B assay; details: read-out: Activity
OVCAR-4 = test: Growth inhibition of human OVCAR4 cells assessed as cell growth at 10 uM by sulforhodamine B assay; details: read-out: Activity
HOP-62 = test: Growth inhibition of human HOP62 cells assessed as growth inhibition at 10 uM by sulforhodamine B assay; details: read-out: GI
SN12C = test: Growth inhibition of human SN12C cells assessed as cell growth at 10 uM by sulforhodamine B assay; details: read-out: Activity
SF-539 = test: Growth inhibition of human SF539 cells assessed as growth inhibition at 10 uM by sulforhodamine B assay; details: read-out: GI
MDA-MB-231 = test: Growth inhibition of human MDA-MB-231 cells assessed as growth inhibition at 10 uM by sulforhodamine B assay; details: read-out: GI
SNB-75 [18] = test: Growth inhibition of human SNB75 cells assessed as cell growth at 10 uM by sulforhodamine B assay; details: read-out: Activity
[19] = Growth inhibition of human Hs 578T cells assessed as cell growth at 10 uM by sulforhodamine B assay; details: read-out: Activity
IGROV-1 [20] = test: Growth inhibition of human IGROV1 cells assessed as cell growth at 10 uM by sulforhodamine B assay; details: read-out: Activity
SW-620 = test: Growth inhibition of human SW620 cells assessed as growth inhibition at 10 uM by sulforhodamine B assay; details: read-out: GI
SK-MEL-5 = test: Growth inhibition of human SK-MEL-5 cells assessed as cell growth at 10 uM by sulforhodamine B assay; details: read-out: Activity
U-251 = test: Growth inhibition of human U251 cells assessed as cell growth at 10 uM by sulforhodamine B assay; details: read-out: Activity
LOX IMVI = test: Growth inhibition of human LOXIMVI cells assessed as cell growth at 10 uM by sulforhodamine B assay; details: read-out: Activity
MDA-MB-435 = test: Growth inhibition of human MDA-MB-435 cells assessed as growth inhibition at 10 uM by sulforhodamine B assay; details: read-out: GI

## C/C=C(/C)C(=O)O[C@@H]1CC(C)(C)C[C@H]2C3=CC[C@@H]4[C@@]5(C)CC[C@H](O)C(C)(C)[C@@H]5CC[C@@]4(C)[C@]3(C)CC[C@@]12C(=O)O [Reduced Lantadene A]
HL-60(TB) [1]
  growth inhibition (GI): Active
COLO 205
  inhibition of growth at 10 µM: 71.8%
MDA-MB-468
  growth at 10 µM: 66.1%
IGROV-1 [2]
  inhibition of growth at 10 µM: 64.9%
A549
  inhibition of growth at 10 µM: 72.6%
M14
  growth at 10 µM: 28.7%
HCT-116
  growth at 10 µM: 20%
UACC-62
  growth inhibition (GI): Active
NCI-H322M
  growth at 10 µM: -8.43%
DU-145
  inhibition of growth at 10 µM: 25.1%
MOLT-4
  growth at 10 µM: 41.4%
KM12
  growth at 10 µM: 21.7%
Malme-3M [3]
  inhibition of growth at 10 µM: 64.8%
Malme-3M [4]
  growth at 10 µM: 35.2%
CCRF-CEM
  inhibition of growth at 10 µM: 54.2%
UO-31
  growth inhibition (GI): Active
BT-549 [5]
  inhibition of growth at 10 µM: 73.9%
SF-268
  growth at 10 µM: 25.9%
RXF 393 [6]
  inhibition of growth at 10 µM: 77.2%
HL-60(TB) [7]
  growth at 10 µM: -50.8%
BT-549 [8]
  growth at 10 µM: 26.1%
T47D
  growth at 10 µM: 75.7%
SNB-75 [9]
  inhibition of growth at 10 µM: 88%
RXF 393 [10]
  growth at 10 µM: 22.8%
[11]
  inhibition of growth at 10 µM: 63.5%
NCI-H460
  growth at 10 µM: 35.1%
NCI-H23
  growth at 10 µM: 64.7%
ACHN
  growth at 10 µM: 8.12%
HOP-92 [12]
  growth inhibition (GI): Active
HOP-92 [13]
  growth at 10 µM: -54.2%
UACC-257 [14]
  growth at 10 µM: 60.6%
UACC-257 [15]
  inhibition of growth at 10 µM: 39.4%
SR [16]
  inhibition of growth at 10 µM: 38.1%
K562
  inhibition of growth at 10 µM: 64.1%
MCF7
  inhibition of growth at 10 µM: 39%
SR [17]
  growth at 10 µM: 61.9%
OVCAR-4
  growth at 10 µM: 63.2%
HOP-62
  inhibition of growth at 10 µM: 75.7%
SN12C
  growth at 10 µM: 5.77%
SF-539
  inhibition of growth at 10 µM: 57%
MDA-MB-231
  inhibition of growth at 10 µM: 77.8%
SNB-75 [18]
  growth at 10 µM: 11.9%
[19]
  growth at 10 µM: -17.2%
IGROV-1 [20]
  growth at 10 µM: 35.1%
SW-620
  inhibition of growth at 10 µM: 60.9%
SK-MEL-5
  growth at 10 µM: 53.2%
U-251
  growth at 10 µM: 38.2%
LOX IMVI
  growth at 10 µM: 42.7%
MDA-MB-435
  inhibition of growth at 10 µM: 35.1%

## CC(C)=CC(=O)O[C@@H]1CC(C)(C)C[C@H]2C3=CC[C@@H]4[C@@]5(C)CC[C@H](O)C(C)(C)[C@@H]5CC[C@@]4(C)[C@]3(C)CC[C@@]12C(=O)O [Reduced Lantadene B]
HL-60(TB) [1]; read-out: GI
  inhibition of growth at 10 µM: 86%
COLO 205
  inhibition of growth at 10 µM: 31.9%
MDA-MB-468
  growth at 10 µM: 113%
IGROV-1 [2]
  inhibition of growth at 10 µM: 21.7%
A549
  inhibition of growth at 10 µM: 76.5%
M14
  growth at 10 µM: 94%
HCT-116
  growth at 10 µM: 27.2%
UACC-62; read-out: GI
  inhibition of growth at 10 µM: 32.8%
NCI-H322M
  growth at 10 µM: 59.7%
DU-145
  inhibition of growth at 10 µM: 13.4%
MOLT-4
  growth at 10 µM: 49.6%
KM12
  growth at 10 µM: 34.3%
Malme-3M [3]
  inhibition of growth at 10 µM: < 10%
Malme-3M [4]
  growth at 10 µM: 96.7%
CCRF-CEM
  inhibition of growth at 10 µM: 72.6%
UO-31; read-out: GI
  inhibition of growth at 10 µM: 39.1%
BT-549 [5]
  inhibition of growth at 10 µM: 21.9%
SF-268
  growth at 10 µM: 92.2%
RXF 393 [6]
  inhibition of growth at 10 µM: 14.8%
HL-60(TB) [7]
  growth at 10 µM: 14%
BT-549 [8]
  growth at 10 µM: 78.1%
T47D
  growth at 10 µM: 86.7%
SNB-75 [9]
  inhibition of growth at 10 µM: 26.8%
RXF 393 [10]
  growth at 10 µM: 85.2%
[11]
  inhibition of growth at 10 µM: 52.3%
NCI-H460
  growth at 10 µM: 50.3%
NCI-H23
  growth at 10 µM: 63.4%
ACHN
  growth at 10 µM: 46.3%
HOP-92 [12]; read-out: GI
  inhibition of growth at 10 µM: 57%
HOP-92 [13]
  growth at 10 µM: 43%
UACC-257 [14]
  growth at 10 µM: 92.7%
UACC-257 [15]
  inhibition of growth at 10 µM: < 10%
SR [16]
  inhibition of growth at 10 µM: 29.8%
K562
  inhibition of growth at 10 µM: 54.8%
MCF7
  inhibition of growth at 10 µM: 37.3%
SR [17]
  growth at 10 µM: 70.2%
OVCAR-4
  growth at 10 µM: 70.7%
HOP-62
  inhibition of growth at 10 µM: 46.3%
SN12C
  growth at 10 µM: 50.9%
SF-539
  inhibition of growth at 10 µM: 45.3%
MDA-MB-231
  inhibition of growth at 10 µM: 18.7%
SNB-75 [18]
  growth at 10 µM: 73.2%
[19]
  growth at 10 µM: 85.5%
IGROV-1 [20]
  growth at 10 µM: 78.3%
SW-620
  inhibition of growth at 10 µM: 33.1%
SK-MEL-5
  growth at 10 µM: 61.5%
U-251
  growth at 10 µM: 39.2%
LOX IMVI
  growth at 10 µM: 53.2%
MDA-MB-435
  inhibition of growth at 10 µM: < 10%
